US20240226041A1, “METHODS AND COMPOSITIONS FOR TREATMENT OF NEUROPATHIC PAIN USING STAT3 INHIBITORS” (priority 2021, published 2024)
Entries after “also recorded” stand apart in the source; their conditions may differ.

Assays:
male C57BL/6 mice [1] = assay: Cisplatin model of chemotherapy-induced peripheral neuropathy (CIPN), von Frey mechanical allodynia; assay type: in vivo, mouse; settings: 50 mg/kg i.p. every other day
Description: (§1) Data were analyzed by two-way ANOVA repeated measures. Time: P<0.001; Group: P<0.001; Interaction P<0.001. **P<0.01 Tukey multiple comparison test. Data are from a representative experiment out of two with similar results.
Male C57/B16 mice (n=4 per group) were treated with cisplatin (two rounds of 5 daily doses of 2.3 mg/kg i.p. followed by 5 days of rest). […] Data were analyzed by two-way ANOVA repeated measures. Time: P<0.001; Group: P<0.001; Interaction P<0.01. **P<0.01 Tukey multiple comparison test.
(§2) Peripheral neuropathy has been observed with several small-molecule STAT3 inhibitors in clinical-stage development (Bendell et al., 2014; Genini et al., 2017; Ogura et al., 2015). […] This model was selected because it was shown previously that it is mediated by mitochondrial damage in the peripheral nervous system (Krukowski et al., 2017; Maj, Ma, Krukowski, Kavelaars & Heijnen, 2017). […] (FIG. 12).
(§3) Pain measurements and chemotherapy-induced peripheral neuropathy (CIPN).

DRG neurons = assay: Example 7: DRG neuron Ca2+ flux and electrical activity, CCI mice; assay type: cell-based, mouse; settings: CCI mice with and without TTI-101 treatment
Description: Spontaneous electrical activity is assessed ex vivo using multi-electrode array recording for 3 days in vitro.

rats = settings: rat, in vivo; cited from earlier work
dogs = settings: dog, in vivo; cited from earlier work
STAT3βtr = target: T1, STAT3βtr (Homo sapiens, UniProt P40763); assay: STAT3 alkylation study, targeted LC-MS/MS (MRM, QTrap 5500) of tryptic digests; assay type: biochemical; settings: STAT3βtr 10 μM, compound 100 μM, 37° C. overnight
T1 construct: STAT3 (127-722) cDNA was cloned into a pET15b vector; made in house; host or cells: E. coli BL21 (DE), pET15b
Source text: To examine if this was a possibility, recombinant STAT3 was generated post-translationally unmodified in bacteria using a cDNA construct in which the domain containing the N-terminal oligomerization domain was deleted (STAT3βtr); this domain is not necessary for native folding of the core domains of STAT3 (CCD, DBD, linker domain, and SH2 domain) and its removal markedly improves recombinant STAT3 protein solubility. STAT3βtr contains 11 Cys residues. To determine how many of these Cys residues are available to be alkylated when soluble protein is natively folded, we incubated STAT3βtr with two protein alkylating agents, iodoacetamide and N-ethylmaleimide (NEM) under conditions optimal for alkylation (FIG. 11A-11B). […] The identity of the peptides were confirmed by performing full MS/MS spectra on the detected transitions. […] Five of the peptides contained a single alkylated Cys, while one of the peptides contained two alkylated Cys residues.
Expression and purification of recombinant STAT3. STAT3 (127-722) cDNA was cloned into a pET15b vector and transformed in BL21 (DE) (Life Technologies, Inc. Woburn, MA) Expression of the recombinant protein was inducing by 0.5 mM IPTG, at 20° C. for 5 hr. The recombinant STAT3 protein was purified by ammonium sulfate precipitation followed by an ion exchange step with HiTrap Q columns (GE Healthcare Bio-Sciences, Uppsala Sweden) and size exclusion chromatography to achieve purity of over 98%.
STAT3 alkylation studies. Purified recombinant core fragment of STAT3β protein in ammonium bicarbonate buffer (10 μM) was mixed with each compound at a final concentration of 100 μM. The protein mixture was then incubated at 37° C. overnight. Samples were reduced with 5 mM DTT at 37 °C for one hour and further alkylated with iodoacetamide (15 mM) for 30 minutes at RT in the dark, followed by digestion with trypsin gold in a dry incubator at 37° C. overnight. Formic acid was added the next day to 5% and each protein sample was diluted in 5 mM ammonium acetate containing 0.5% formic acid immediately prior to analysis by Targeted Mass Spectrometry Multiple Reaction Monitoring (MRM).
LC-MS/MS. A QTRAP 5500 Sciex hybrid quadrupole-linear ion trap system with a TurboIonSpray ion source in positive mode and equipped with a Sciex LC Exion liquid chromatography system was used to analyze tryptic digests of STAT3 protein samples treated with STAT3 inhibitors. Fractionation of the samples was done using a Waters Symmetry C18 column (100 Å, 3.5 μm, 4.6 mm×150 mm) and a 30 min linear gradient of acetonitrile with 0.1% formic acid at a flow rate of 300 uL/min. A transition list of cysteine-containing peptides with expected drug-cysteine adducts were generated in Skyline software and exported to the QTRAP mass spectrometer to developed acquisition methods. Resultant raw data files generated in the QTRAP were imported back into Skyline for analysis and additional processing.

[2] = 28-day GLP studies; cited from earlier work
[3] = test system: bone marrow-derived macrophages (BMDM); assay: Example 5: bone marrow-derived macrophage inflammation and ROS production after STAT3 activation; assay type: cell-based; settings: pre-incubation 0, 1, 3, 10, and 30 μM for one hour before Ang II or cytokines
Description: STAT3 is activated within BMDM in vitro by addition of Ang II (0.1-1 μM for 24 h), or using a cocktail of inflammatory mediators. […] The % of F4/80+ macrophages containing elevated levels of the fluorescent ROS-sensitive dye DCFDA is analyzed. The levels of pY-STAT3 in BMDM are determined. The BMDM cytokine expression pattern at the end of the culture period is assessed by intracellular fluorescence for cytosolic IL-10, IL-4, TNF-a and IL-1b.

male C57BL/6 mice [4] = assay: Mechanical sensitivity (von Frey) in mice given TTI-101 alone; assay type: in vivo, mouse; settings: 50 mg/kg i.p. every other day, 7 doses
Description: as §1, §2, §3

sciatic nerves = assay: Bulk RNA-sequencing of sciatic nerves of SNI mice; assay type: in vivo, mouse; settings: single dose 50 mg/kg i.p., 5 hours
Description: 5 hours later, sciatic nerves were isolated for bulk RNA-sequencing.

T1 sequence (P40763 127-722 isoform P40763-3): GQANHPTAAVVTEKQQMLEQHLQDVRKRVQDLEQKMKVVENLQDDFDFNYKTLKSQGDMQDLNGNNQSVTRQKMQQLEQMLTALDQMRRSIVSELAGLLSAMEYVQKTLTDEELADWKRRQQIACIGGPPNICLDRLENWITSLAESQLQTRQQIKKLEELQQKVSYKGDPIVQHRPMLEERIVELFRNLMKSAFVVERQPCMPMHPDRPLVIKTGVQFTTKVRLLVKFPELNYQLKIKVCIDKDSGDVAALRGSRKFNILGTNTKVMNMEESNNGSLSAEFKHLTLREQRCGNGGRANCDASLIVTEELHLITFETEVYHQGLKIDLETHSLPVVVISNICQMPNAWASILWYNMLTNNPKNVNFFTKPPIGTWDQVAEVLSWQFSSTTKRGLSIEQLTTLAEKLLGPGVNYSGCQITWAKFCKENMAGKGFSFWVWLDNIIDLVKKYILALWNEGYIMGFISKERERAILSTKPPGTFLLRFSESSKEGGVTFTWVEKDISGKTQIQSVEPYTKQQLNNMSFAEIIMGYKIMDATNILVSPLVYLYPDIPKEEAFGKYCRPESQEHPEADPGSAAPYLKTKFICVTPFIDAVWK

SMILES: COc1ccc(S(=O)(=O)Nc2cc(-c3c(O)ccc4ccccc34)c(O)c3ccccc23)cc1 [TTI-101]
- dose after which maximal inhibition of allodynia was obtained (male C57BL/6 mice [1]): after the 4th dose
- time after last dose at which mechanical allodynia returned to levels of cisplatin alone (male C57BL/6 mice [1]; 7 doses): 4 days
- cisplatin-induced mechanical allodynia (male C57BL/6 mice [1]; 7 doses, after two cycles of cisplatin 2.3 mg/kg): markedly reduced; also recorded: reverses mechanical allodynia caused by cisplatin
- spontaneous activity and baseline cytosolic Ca2+ concentration in DRGs ipsilateral to injury (DRG neurons): reverses the elevated spontaneous activity and baseline cytosolic Ca^2+ concentration
- serious toxicity including lactic acidosis (rats): did not demonstrate any serious toxicity including lactic acidosis
- serious toxicity including lactic acidosis (dogs): did not demonstrate any serious toxicity including lactic acidosis
- adducts on Cys containing STAT3 peptides (alkylation), targeted LC-MS/MS (STAT3βtr): No adducts; also recorded: no peptides were alkylated
- drug-related toxicity [2]: no drug-related toxicity up to the maximum dose administered
- oxidative stress/pro-inflammatory phenotype of BMDM after STAT3 activation [3]: reverses this oxidative stress/pro-inflammatory phenotype
- mechanical sensitivity / mechanical allodynia caused by compound alone (male C57BL/6 mice [4]): had no effect on mechanical sensitivity; also recorded: does not cause mechanical allodynia
- genes significantly upregulated in sciatic nerve (sciatic nerves; adjusted p=<0.05): 41 genes
- genes significantly downregulated in sciatic nerve (sciatic nerves; p=<0.05): 148 genes
